Data from PMC6199744, “Development of Chemical Proteomics for the Folateome and Analysis of the Kinetoplastid Folateome” (ACS Infectious Diseases, 2018).
Where two headings read alike, the source gives them in different places.

Experiments:
Type in all cases: binding
[1] = target: T1, HeLa cell extract proteins (Homo sapiens, UniProt Q96JI7)
T1 construct: endogenous in cells; host or cells: HeLa cell extract

[2] = target: T2, HeLa cell extract proteins (Homo sapiens, UniProt Q9BUF5); details: HeLa; protein TUBB6
T2 construct: endogenous in cells; host or cells: HeLa cell extract

[3] = target: T3, HeLa cell extract proteins (Homo sapiens, UniProt P04004); details: HeLa; protein VTN
T3 construct: endogenous in cells; host or cells: HeLa cell extract
T3 sequence (P04004 20-478): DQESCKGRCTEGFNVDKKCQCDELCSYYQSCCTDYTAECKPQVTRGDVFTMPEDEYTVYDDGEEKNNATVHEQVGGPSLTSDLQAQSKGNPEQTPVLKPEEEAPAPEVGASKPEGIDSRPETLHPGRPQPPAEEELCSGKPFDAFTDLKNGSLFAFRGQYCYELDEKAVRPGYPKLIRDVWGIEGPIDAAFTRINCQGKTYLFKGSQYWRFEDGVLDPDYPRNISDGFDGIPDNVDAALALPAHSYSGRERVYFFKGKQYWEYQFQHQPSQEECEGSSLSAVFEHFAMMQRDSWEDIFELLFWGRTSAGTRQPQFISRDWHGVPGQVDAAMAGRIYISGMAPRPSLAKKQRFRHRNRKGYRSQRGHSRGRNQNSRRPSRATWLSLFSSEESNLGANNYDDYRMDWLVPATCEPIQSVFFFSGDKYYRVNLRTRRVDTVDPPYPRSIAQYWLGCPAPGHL

[4] = target: T4, HeLa cell extract proteins (Homo sapiens, UniProt Q14746); details: captured protein COG2; HeLa
T4 construct: endogenous in cells; host or cells: HeLa cell extract
T4 sequence (Q14746 1-738): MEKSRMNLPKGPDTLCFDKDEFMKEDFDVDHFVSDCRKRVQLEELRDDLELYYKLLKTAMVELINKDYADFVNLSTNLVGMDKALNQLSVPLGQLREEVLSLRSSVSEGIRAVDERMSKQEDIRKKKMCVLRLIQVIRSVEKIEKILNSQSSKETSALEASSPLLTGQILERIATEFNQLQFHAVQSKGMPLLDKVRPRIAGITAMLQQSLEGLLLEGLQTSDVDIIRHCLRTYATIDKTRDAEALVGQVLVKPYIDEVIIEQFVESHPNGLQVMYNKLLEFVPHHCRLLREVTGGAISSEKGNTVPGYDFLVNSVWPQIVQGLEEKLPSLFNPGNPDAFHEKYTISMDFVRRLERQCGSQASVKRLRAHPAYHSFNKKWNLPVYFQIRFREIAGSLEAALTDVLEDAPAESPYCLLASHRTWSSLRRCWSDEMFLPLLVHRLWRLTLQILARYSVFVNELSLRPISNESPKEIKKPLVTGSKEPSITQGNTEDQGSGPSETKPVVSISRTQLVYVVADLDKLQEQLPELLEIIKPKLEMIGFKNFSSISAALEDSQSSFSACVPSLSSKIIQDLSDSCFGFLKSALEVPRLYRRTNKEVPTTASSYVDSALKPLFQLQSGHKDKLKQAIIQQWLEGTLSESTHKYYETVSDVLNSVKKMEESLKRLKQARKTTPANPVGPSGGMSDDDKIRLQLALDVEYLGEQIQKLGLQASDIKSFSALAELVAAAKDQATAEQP

[5] = target: T5, HeLa cell extract proteins (Homo sapiens, UniProt Q8WTW3); details: protein COG1; HeLa
T5 construct: endogenous in cells; host or cells: HeLa cell extract
T5 sequence (Q8WTW3 1-980): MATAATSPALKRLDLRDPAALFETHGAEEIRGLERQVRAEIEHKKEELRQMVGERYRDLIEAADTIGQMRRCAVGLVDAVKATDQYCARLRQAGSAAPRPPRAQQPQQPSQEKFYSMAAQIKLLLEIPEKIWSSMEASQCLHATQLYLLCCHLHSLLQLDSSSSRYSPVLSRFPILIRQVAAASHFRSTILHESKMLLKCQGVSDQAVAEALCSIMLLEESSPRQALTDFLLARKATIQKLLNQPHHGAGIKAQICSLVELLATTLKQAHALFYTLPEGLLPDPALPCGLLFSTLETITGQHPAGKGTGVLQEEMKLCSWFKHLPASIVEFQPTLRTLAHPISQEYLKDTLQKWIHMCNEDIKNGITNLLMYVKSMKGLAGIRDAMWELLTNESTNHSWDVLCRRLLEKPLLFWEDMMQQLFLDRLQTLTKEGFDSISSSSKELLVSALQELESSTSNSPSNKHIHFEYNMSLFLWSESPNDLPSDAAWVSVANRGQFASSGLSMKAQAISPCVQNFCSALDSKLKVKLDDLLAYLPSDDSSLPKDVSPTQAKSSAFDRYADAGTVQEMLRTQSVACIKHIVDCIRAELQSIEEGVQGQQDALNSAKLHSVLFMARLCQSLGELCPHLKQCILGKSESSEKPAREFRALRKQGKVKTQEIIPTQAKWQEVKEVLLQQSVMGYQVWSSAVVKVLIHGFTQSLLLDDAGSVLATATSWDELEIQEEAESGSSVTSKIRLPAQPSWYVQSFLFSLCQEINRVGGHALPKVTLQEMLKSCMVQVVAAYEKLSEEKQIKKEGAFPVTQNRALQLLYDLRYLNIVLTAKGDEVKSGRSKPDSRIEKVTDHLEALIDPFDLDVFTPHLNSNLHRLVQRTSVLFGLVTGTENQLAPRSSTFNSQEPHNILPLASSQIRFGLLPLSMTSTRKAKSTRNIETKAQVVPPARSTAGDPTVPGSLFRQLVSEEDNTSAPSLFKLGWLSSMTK

T2 sequence (Q9BUF5 whole entry): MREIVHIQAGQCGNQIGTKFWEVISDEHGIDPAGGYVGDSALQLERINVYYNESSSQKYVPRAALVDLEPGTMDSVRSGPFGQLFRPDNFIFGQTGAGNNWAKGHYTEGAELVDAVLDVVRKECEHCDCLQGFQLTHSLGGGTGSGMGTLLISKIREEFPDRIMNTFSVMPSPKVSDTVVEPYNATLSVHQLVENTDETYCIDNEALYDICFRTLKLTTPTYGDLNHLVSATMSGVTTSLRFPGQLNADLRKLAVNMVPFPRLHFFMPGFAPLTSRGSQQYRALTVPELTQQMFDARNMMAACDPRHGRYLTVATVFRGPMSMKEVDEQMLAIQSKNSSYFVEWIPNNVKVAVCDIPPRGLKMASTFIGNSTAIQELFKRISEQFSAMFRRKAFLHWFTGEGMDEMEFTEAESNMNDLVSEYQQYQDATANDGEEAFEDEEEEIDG
T1 sequence (Q96JI7 whole entry): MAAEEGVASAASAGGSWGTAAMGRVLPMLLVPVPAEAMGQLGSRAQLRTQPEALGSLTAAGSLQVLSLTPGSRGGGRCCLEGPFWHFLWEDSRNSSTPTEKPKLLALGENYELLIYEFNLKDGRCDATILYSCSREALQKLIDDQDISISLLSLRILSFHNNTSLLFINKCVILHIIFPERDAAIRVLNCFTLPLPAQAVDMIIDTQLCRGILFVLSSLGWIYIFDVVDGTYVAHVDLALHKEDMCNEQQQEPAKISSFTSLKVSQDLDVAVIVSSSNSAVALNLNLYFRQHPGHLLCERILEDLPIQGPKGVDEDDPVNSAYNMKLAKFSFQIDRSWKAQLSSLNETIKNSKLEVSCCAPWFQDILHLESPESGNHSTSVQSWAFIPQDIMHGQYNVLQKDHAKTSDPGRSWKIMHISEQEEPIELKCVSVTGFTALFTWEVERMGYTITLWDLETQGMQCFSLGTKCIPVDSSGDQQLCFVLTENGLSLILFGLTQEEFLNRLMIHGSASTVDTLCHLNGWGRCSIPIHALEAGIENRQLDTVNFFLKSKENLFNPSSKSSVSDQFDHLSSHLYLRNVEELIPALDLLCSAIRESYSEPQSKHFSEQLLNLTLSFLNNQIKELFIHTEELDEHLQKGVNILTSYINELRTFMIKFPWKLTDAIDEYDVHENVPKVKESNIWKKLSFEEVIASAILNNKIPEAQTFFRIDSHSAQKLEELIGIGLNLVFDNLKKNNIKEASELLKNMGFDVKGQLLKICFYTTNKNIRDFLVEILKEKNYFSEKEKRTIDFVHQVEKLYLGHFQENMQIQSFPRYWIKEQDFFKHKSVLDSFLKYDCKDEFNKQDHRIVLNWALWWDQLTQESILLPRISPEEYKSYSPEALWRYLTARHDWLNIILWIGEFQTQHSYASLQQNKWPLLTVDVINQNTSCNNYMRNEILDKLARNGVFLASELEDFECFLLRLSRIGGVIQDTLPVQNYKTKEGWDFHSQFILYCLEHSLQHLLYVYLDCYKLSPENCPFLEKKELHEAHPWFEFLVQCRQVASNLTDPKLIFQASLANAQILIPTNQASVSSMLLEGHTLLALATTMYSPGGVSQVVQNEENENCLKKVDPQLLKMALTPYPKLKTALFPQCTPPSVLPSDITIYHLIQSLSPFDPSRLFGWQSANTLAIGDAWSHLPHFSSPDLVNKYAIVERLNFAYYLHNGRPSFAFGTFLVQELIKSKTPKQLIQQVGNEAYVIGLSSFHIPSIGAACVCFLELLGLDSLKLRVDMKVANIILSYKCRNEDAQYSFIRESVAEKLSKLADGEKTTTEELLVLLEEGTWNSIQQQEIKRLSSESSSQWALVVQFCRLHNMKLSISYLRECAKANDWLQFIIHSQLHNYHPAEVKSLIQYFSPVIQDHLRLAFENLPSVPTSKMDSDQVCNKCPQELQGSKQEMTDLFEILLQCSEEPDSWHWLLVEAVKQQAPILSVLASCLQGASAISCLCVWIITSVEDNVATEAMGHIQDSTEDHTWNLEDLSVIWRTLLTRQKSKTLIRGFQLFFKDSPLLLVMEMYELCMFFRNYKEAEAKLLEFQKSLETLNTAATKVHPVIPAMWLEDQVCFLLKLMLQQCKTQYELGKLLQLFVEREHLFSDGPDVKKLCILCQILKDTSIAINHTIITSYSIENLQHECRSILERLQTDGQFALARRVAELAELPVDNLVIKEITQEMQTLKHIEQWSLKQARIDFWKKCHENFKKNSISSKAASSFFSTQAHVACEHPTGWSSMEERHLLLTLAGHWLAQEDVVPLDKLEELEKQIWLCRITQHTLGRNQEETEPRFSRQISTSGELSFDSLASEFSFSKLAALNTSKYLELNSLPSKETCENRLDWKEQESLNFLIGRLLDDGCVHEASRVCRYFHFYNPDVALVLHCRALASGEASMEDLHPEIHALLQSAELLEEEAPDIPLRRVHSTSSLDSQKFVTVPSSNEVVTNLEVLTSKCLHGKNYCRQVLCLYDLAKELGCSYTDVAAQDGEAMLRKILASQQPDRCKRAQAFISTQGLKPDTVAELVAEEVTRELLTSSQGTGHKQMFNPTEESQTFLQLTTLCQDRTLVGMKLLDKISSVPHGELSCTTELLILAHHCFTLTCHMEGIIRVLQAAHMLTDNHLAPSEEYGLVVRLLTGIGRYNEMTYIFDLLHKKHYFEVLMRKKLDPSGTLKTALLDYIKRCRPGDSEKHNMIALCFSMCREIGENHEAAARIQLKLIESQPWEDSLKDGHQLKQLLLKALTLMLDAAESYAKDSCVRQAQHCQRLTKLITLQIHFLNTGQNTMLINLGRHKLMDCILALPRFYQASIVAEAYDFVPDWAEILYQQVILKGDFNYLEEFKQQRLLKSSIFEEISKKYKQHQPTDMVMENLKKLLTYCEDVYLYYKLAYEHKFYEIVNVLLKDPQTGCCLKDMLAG

| Compound | fold changes relative to vehicle control ([1]; protein SPG11, HeLa) | fold changes relative to vehicle control [1] | fold changes relative to vehicle control [2] | fold changes relative to vehicle control [3] | fold changes relative to vehicle control [4] | fold changes relative to vehicle control [5] |
| --- | --- | --- | --- | --- | --- | --- |
| Nc1nc2c(c(=O)[nH]1)N(C=O)C(CNc1ccc(C(=O)N[C@@H](CCC(=O)O)C(=O)O)cc1)CN2 (stereo partly shown) [LEU, leucovorin] | 1.3 | – | – | – | – | – |
| Nc1nc2[nH]cc(CCc3ccc(C(=O)N[C@@H](CCC(=O)O)C(=O)O)cc3)c2c(=O)[nH]1 [PTX, pemetrexed] | – | 1.38 | – | – | – | – |
| CCCCCCOc1ccc(Cc2cnc(N)nc2N)cc1 [compound 1] | – | – | 0.7 | 1 | 0.88 | 1 |
| CCCCCCOc1cccc(Cc2cnc(N)nc2N)c1 [compound 2] | – | – | 0.91 | 0.91 | 1 | 1.21 |
| Nc1nc2cccc(-c3ccccc3)c2n1Cc1ccc(Cl)c(Cl)c1 [compound 3] | – | – | 1.19 | 1.05 | 0.82 | 0.98 |
| NCCOCCOCC(=O)Nc1nc2ncc(CNc3ccc(C(=O)NC(CCC(=O)O)C(=O)O)cc3)nc2c(=O)[nH]1 (stereo not shown) [compound 6] | 1.86 | – | – | – | – | – |
| NCCCNc1ccc(C(=O)NC(CCC(=O)O)C(=O)O)cc1 (stereo not shown) [compound 7] | 1.54 | – | – | – | – | – |
